Test [1] addresses T1, D protease (Paenibacillus polymyxa, UniProt P29148). Description: Inhibition, activation and stabilization of D protease. The format is biochemical. The settings on record: for Inhibition of D protease: metal chelating agents and oxidizing agents.
In test [2] the target is T1, D protease. The settings on record: Patent Document 1; cited from earlier work.

T1 sequence (P29148 287-590): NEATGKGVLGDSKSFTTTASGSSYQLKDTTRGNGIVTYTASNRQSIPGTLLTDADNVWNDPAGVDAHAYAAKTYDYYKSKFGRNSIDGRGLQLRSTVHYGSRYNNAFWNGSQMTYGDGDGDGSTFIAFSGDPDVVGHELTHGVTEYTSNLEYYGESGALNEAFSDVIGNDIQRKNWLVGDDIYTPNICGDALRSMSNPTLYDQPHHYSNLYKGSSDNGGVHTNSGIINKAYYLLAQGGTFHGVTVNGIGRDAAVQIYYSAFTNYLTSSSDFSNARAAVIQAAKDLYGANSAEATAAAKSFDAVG

As to `c1ccc(-c2ccccn2)nc1` [2,2-dipyridyl], the “Inhibition of D protease” value at D protease [1] is “inhibited”.
`[Al+3]` [Al^3+]: the “Effect on D protease activity” value at D protease [2] is “activity enhanced”.
In the case of `[Ca+2]` [Ca^2+], at D protease [2], the “Effect on D protease activity” value is “activity enhanced”. Further, the “Stabilization of D protease” value on D protease [1] is recorded as “stabilized”.
Consider `[Fe+2]` [Fe^2+], for which the “Effect on D protease activity” value at D protease [2] is reported as “activity enhanced”.
For `[Mg+2]` [Mg^2+], the “Effect on D protease activity” value on D protease [2] was “activity enhanced”.
As for `[Mn+2]` [Mn^2+], the “Effect on D protease activity” value at D protease [2] was “activity enhanced”.
For the compound `O=C1CCC(=O)N1Br` [N-bromosuccinimide], on D protease [1], the “Inhibition of D protease” value is recorded as “inhibited”.
On the same count and under the same terms, under `c1cnc2c(c1)ccc1cccnc12` [O-phenanthroline] stands “inhibited”.
The same measure, in the same setting: then `O=C(O)CC(O)(CC(=O)O)C(=O)O` [citric acid], with “inhibited”; and `II` [iodine], with “inhibited”.
Same read-out and setting: under `[F-].[Na+]` [sodium fluoride] stands “inhibited”.
On to `[Zn+2]` [zinc ion], for which the “Activation of D protease” value on D protease [1] is reported as “activation thereof requires zinc ion”.

(Values after US8951397B2, “Electrophoretic analysis method” (Godo Shusei Co., Ltd., priority 2009, dated 2015).)
